Experimental findings from patent US10752626B2, “Iso-citrate dehydrogenase (IDH) inhibitor” (SHANGHAI METON PHARMACEUTICAL CO., LTD, priority 2016, dated 2020) are described below.

Some results are limits rather than exact numbers.

In assay [1] the target is IDH1 R132H (Homo sapiens (Human), UniProt O75874, R132H). As to the kind of experiment: Biochemical assay for inhibition of mutant IDH1 R132H. To be noted: tested in triplet. An excerpt: (§1) The present disclosure provides a biochemical assay method for detecting the IDH inhibition and selectivity of the compounds by detecting IDH enzyme activity directly.
(§2) Wild-type IDH enzyme could convert NADP^+ to NADPH when it catalyzes the α-KG producing reaction. Mutant IDH enzyme could convert NADPH to NADP^+ when it catalyzes the D-2-HG producing reaction. So the activity of wild-type and mutant IDH1/2 could be measured by monitoring NADPH level change: in the reaction catalyzed by wild-type IDH1/2, the newly generated NADPH is utilized instantly by coupled diaphorase-resazurin reaction to generate resorufin which is fluorescent (at Excitation 544 nm, Emission 590 nm) and thus NADPH is monitored indirectly; while in the reaction catalyzed by mutant IDH1/2, NADPH is directly monitored as it is fluorescent (at Excitation 340 nm, Emission 460 nm). By monitoring the change of NADPH level in the reaction, the enzyme activity could be determined rapidly and efficiently, IC50 of a compound could also be assayed.
(§3) The test compounds were prepared into 50 mM stock solutions in DMSO and stored at −20° C. Each test compound stock was further diluted to obtain a 100× stock solution at a concentration of 200 μM, 100 μM, 50 μM, 25 μM, 12.5 jμM, 6.25 μM and 3.125 μM, respectively, for the final use on the day of test.
(§4) Inhibition of Mutant IDHJ (R132H or R132C):
(§5) Solution A was prepared by combining 1 M Tris-HCl pH7.5 (300 μL), 5 M NaCl (450 μL), 1 M MgCl2 (150 μL), 1 M DTT (15 μL), 20 mg/mL BSA (37.5 μL), 20 mM NADPH (20 μL), and 0.5 mM α-KG (40 μL), followed by adding deionized water to a final volume of 15 mL.
(§6) Reaction buffer was prepared by combining 1 M Tris-HCl pH 7.5 (200 μL), 5 M NaCl (300 μL), 1 M MgCl2 (100 μL), 1 M DTT (10 μL) and 20 mg/mL BSA (25 μL), followed by adding deionized water to a final volume of 10 mL.
(§7) Solution B was prepared by combining the reaction buffer (5 mL) and […] IDH1-R132H (5.21 μL) or 107 μM IDH1-R132C (4.67 μL).
(§8) 148 μL Solution A was added into each sample well of a 96-well plate P1, and then 2 μL of the test compound solution at each concentration and 2 μL of DMSO (negative control/blank) were added into individual sample well respectively. 50 μL of Solution B was added into each of the sample wells having test compounds and one sample well having DMSO only, and 50 μL of reaction buffer was added into another sample well having DMSO only, respectively. P1 was put into BioTek Synergy H4 Microplate reader (BioTek Instruments Inc., Winooski, U.S.), and the program was set as follows: 37° C., shake plate 5 seconds, run kinetic mode, total detection time 20 min, detection intervals 40 seconds, detection mode fluorescence (at Excitation 340 nm, Emission 460 nm). The data were exported, the relative enzyme activity and the half-maximal inhibitory concentration (IC50) for the test compound were calculated. Relative enzyme activity was calculated as the absolute value of the slope of the Emission 460 reads of each well plotted against time (which represents the conversion rate of ca-KG to 2-HG through IDH1 modulated utilization of NADPH). The Dose-response curve was drawn and the IC50 was calculated via fitting. The IDH inhibition and selectivity of each test compound can be evaluated according to the effect of the compounds on the IDH enzyme activity.
(§9) The IDH inhibition activity of the compounds were assessed according to Test 5 of the Biological evaluation section. The test for mutant IDH1 R132H/R132C inhibition of each compound was carried out in triplet. For IDH1 R132H, the enzyme activity of exemplary Compounds 16, 21, 22, 23, 24 and 31 is plotted as a function of logarithm of the concentration of the compound in FIGS. 8A-8C, 9A-9C, 10A-10C, 11A-11C, 12A-12C and 13A-13C, respectively. […]

The target in assay [2] is T1, IDH1 R132C (Homo sapiens (Human), UniProt O75874, R132C). As to the kind of experiment: Biochemical assay for inhibition of mutant IDH1 R132C. To be noted: tested in triplet.
From the text: as §1, §2, §3, §4, §5, §6, §7, §8, §9
Target sequence in this assay (O75874 whole entry R132C): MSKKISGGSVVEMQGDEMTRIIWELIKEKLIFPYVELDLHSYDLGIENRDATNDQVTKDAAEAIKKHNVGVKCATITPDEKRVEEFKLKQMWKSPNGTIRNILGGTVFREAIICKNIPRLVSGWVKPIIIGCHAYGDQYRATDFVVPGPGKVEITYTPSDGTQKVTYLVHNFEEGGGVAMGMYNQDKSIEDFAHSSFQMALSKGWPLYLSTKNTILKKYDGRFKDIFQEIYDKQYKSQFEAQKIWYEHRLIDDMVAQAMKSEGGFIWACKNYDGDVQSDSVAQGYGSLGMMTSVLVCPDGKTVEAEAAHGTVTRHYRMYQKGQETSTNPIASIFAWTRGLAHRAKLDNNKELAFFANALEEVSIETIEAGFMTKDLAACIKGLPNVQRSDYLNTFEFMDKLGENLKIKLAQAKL

In assay [3] the target is T1, IDH1 R132C. As to the kind of experiment: Improved cell-based assay: D-2-HG in HT1080 cells over-expressing D-2-HG dehydrogenase. As to conditions: 12 h. From the text:
The present disclosure also provides a cell based method for assaying IDH inhibition and selectivity of the compounds in human fibrosacoma cell line HT1080 and cholangiocarcinoma cell line HCCC 9810, which harbor endogenous heterozygous IDH1 R132C and R132H mutation respectively and accumulate D-2-HG Tumor derived IDH mutant lost its normal activity of producing α-KG and gained a new activity of producing D-2-HG D-2-HG is a metabolite specifically elevated in IDH mutated tumor samples.
By treating HT1080 and HCCC 9810 cells with an effective IDH inhibitor, the synthesis of D-2-HG is blocked, and D-2-HG concentration is decreased by the oxidation reaction catalyzed by D-2-HG dehydrogenase.
To perform a cell based IDH inhibitor assay, HT1080 and HCCC 9810 cells (or other cell lines harboring different IDH mutations) are cultured in DMEM supplemented with 10% FBS. The cells are treated with compounds of present disclosure at various different concentration. At various time points (between 4-24 hours) after the treatment, cell culture supernatants were removed and cells were washed with PBS for one or two times. Cell metabolites are extracted by adding 80% methanol (pre-chilled under −80° C.) in the cells, extract at 4° C. temperature for 60 min, centrifuged to remove any insoluble component. Metabolites (clear supernatant from the previous step) are lyophilized and reconstituted in pyridine containing 20 mg/ml O-methoxyamineHCl and are incubated at 70° C. for 40 minutes. After cooling down to room temperature, MTBSTFA (N-tert-Butyldimethylsilyl-N-methyltrifluoroacetamide, Sigma Aldrich) is added at a volume ratio of 4:7 (e.g., 20 μL MTBSTFA to 35 μL 20 mg/ml O-methoxyamineHCl solution) and derivation is performed at 70° C. for 30 minutes. The derived metabolites including D-2-HG are analyzed by Agilent 7890A-5750 GC/MS system. […] of the derived metabolite is injected into Agilent 7890A-5750 for D-2-HG concentration analysis. GC oven temperature is programmed from 140° C. to 260° C. at 10° C./min, from 260° C. to 310° C. at 8° C./min and hold at 310° C. for 5 min. The flow rate of carrier gas is 1 ml/min. The mass spectrometer is operated in the electron impact (EI) mode at 70 eV D-2-HG is normalized to endogenous glutamate.
The activity of IDHs in the presence of each compounds at different concentrations can be represented by relative D-2-HG concentration to negative control samples, and the IC50 value, the inhibition and selectivity for each compound can be evaluated.
The present disclosure also provides an improved cell-based assay for IDH inhibition and selectivity of the compounds, which involves stably over-expressing D-2-HG dehydrogenase in HT1080 and HCCC 9810 cells.
According to previous report, over expression of D-2-HG dehydrogenase decreases the half-life of D-2-HG in HT1080 cells (FIGS. 2A and 2B) [“D-2-hydroxyglutarate is essential for maintaining oncogenic property of mutant IDH-containing cancer cells but dispensable for cell growth”, Ma, S., et al., Oncotarget, (2015)], making the cells more sensitive to D-2-HG synthesis blockage by mutant IDH1 inhibitors. It will greatly increase the sensitivity and accurateness of this cell based assay. In the improved cell-based assay, all other steps are performed as disclosed in Test 6.
The D-2-HG inhibition activity of compounds was also assessed in the improved cell-based assay according to the method disclosed in Test 7 of the Biological evaluation section. HT1080 cells over-expressing D-2-HG dehydrogenase were cultured in 35 mm plate and treated with each of Compounds 1-37 at a concentration of 0.5 μM, 1 μM, 2.5 μM and 5 μM for 12 h, respectively, and the D-2-HG concentration was analysed. The inhibition ratio of D-2-HG in HT1080 cell by the exemplary Compounds 16, 21-24 and 31 at different concentrations were shown in Table 10.
Target sequence in this assay (O75874 2-414 R132C): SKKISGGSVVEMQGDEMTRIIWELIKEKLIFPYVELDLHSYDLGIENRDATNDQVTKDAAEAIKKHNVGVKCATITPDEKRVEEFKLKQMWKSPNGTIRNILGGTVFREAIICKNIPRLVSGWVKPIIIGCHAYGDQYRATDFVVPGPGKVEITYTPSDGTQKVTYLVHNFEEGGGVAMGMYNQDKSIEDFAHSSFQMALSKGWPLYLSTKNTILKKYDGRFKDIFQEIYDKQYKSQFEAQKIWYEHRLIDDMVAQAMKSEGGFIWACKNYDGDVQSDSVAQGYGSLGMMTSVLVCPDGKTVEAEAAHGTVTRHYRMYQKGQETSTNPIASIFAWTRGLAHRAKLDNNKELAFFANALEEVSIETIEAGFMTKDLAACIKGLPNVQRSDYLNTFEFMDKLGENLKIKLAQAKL

Chain of IDH1 R132H (O75874 whole entry R132H): as the sequence (O75874 whole entry R132C) above, with C132H counted along it

For orientation: IC50 means the concentration that gives 50% inhibition. For `CCN1Cc2c(ccnc2N[C@@H](C)c2ccc(Oc3cccc(F)c3)cc2)C1=O` [Compound 21, (S)-2-ethyl-4-((1-(4-(3-fluorophenoxy)phenyl)ethyl)amino)-2,3-dihydro-1H-pyrrolo[3,4-c]pyridin-1-one], the figures for the IC50 in assay [1] and in assay [2] were < 1000 nM and < 1500 nM, respectively. The “Inhibition ratio of D-2-HG in HT1080 cell” value (“Inhibition ratio of D-2-HG” for short) in assay [3] (0.5 μM) stood at 20.2%; in assay [3] (1 μM) it was 18.7%; in assay [3] (2.5 μM) it was 43.1%; in assay [3] (5 μM), 76.1%.
Consider `CCN1Cc2c(ccnc2N[C@@H](C)c2ccc(Oc3ccccc3F)cc2)C1=O` [Compound 22, (S)-2-ethyl-4-((1-(4-(2-fluorophenoxy)phenyl)ethyl)amino)-2,3-dihydro-1H-pyrrolo[3,4-c]pyridin-1-one], for which the IC50 in assay [1] was < 1000 nM; in assay [2], < 1500 nM. The “Inhibition ratio of D-2-HG” value in assay [3] (0.5 μM) is listed as 36.3%; in assay [3] (1 μM) it was 53.3%; in assay [3] (2.5 μM), 72.3%; in assay [3] (5 μM), 87.8%.
In the case of `CCN1Cc2c(ccnc2N[C@@H](C)c2ccc(Oc3ccc(C)cc3)c(F)c2)C1=O` [Compound 24, (S)-2-ethyl-4-((1-(3-fluoro-4-(p-tolyloxy)phenyl)ethyl)amino)-2,3-dihydro-1H-pyrrolo[3,4-c]pyridin-1-one], the IC50 was < 1000 nM in assay [1] and < 1500 nM in assay [2]. Besides, the “Inhibition ratio of D-2-HG” value worked out at 45.5% in assay [3] (0.5 μM), 54.6% in assay [3] (1 μM), 72.1% in assay [3] (2.5 μM) and 92.1% in assay [3] (5 μM).
Consider `Cc1ccc(Oc2ccc([C@H](C)Nc3nccc4c3CN(C(C)C)C4=O)cc2)cc1` [Compound 31, (S)-2-isopropyl-4-((1-(4-(p-tolyloxy)phenyl)ethyl)amino)-2,3-dihydro-1H-pyrrolo[3,4-c]pyridin-1-one], for which the figures for the IC50 in assay [1] and in assay [2] were < 1000 nM and < 1500 nM, respectively. For the same compound, the “Inhibition ratio of D-2-HG” value in assay [3] (0.5 μM) came to 36.9%; in assay [3] (1 μM) it was 57.8%; in assay [3] (2.5 μM), 68.7%; in assay [3] (5 μM), 89.1%.
